Assay results as given in patent US4904666A, “Pyrazolo(3,4-d)pyrimidine compounds, compositions and method of use” (Boehringer Mannheim GmbH, priority 1987, dated 1990).

Tested on: passively sensitized strip of pulmonary parenchyma (guinea pig)
Experiment: inhibition of antigen-induced constriction of passively sensitized guinea pig pulmonary parenchyma strips in vitro (organ bath)
Type: cell-based, guinea pig (Pirbright-White)
Details: Cavia porcellus, 20 min; Superfusion; Concentration 10/μM (so in the source); test substance preincubated 20 minutes at 37° C., then ovalbumin constriction; percentage reduction of constriction amplitude vs untreated control constrictions
Excerpt: Activity of the inventive compounds was shown by the following testing in vitro. […] The method employed was as described herewith:
Pirbright-White guinea pigs were stunned by a blow to the neck and bled. The lungs were flushed largely free of blood in situ with Krebs' buffer, pH 7.4.
Then the lung was removed, cut into strips (approx. 20×4×4 mm) and the strips were passively sensitized for one hour at room temperature with a 1:50 dilution of a homologous anti-ovalbumin antiserum and then washed once with Krebs' buffer.
The antiserum had previously been produced as described by Davies et al., (Quantitative studies on anaphylaxis in guinea pigs passively sensitized with homologous antibody. Inter. Arch. Allergy 41, 648-654 (1971)) in guinea pigs of the same strain by repeated injection of ovalbumin (2×crystallized) with the addition of complete Freund's adjuvant (Until it was used, the antiserum was stored undiluted at -18° C.).
Then the lung strips were fixed singly with one end to the bottom of 10-milliliter organ baths, and with the upper end to isometric measuring devices for the recording of the constrictions of the lung strips through an amplifier on a plotter. The tenseron was adjusted to 1.2 g weight.
Then the baths were filled with Krebs' buffer and continually gassed at 37° C. with O2 (95%) and CO2 (5%).
After a 30-minute equilibration phase, histamine control spasms were produced in order to establish the reactivity of the lung specimens, washed, then the test substance was preincubated for 20 minutes at 37° C., and the ovalbumin constriction was produced.
The inhibiting action of the compounds according to the invention was expressed as percentage reduction of the constriction amplitude of the "specimens with the test substance" in proportion to the "untreated control constrictions."

c1csc(CN(c2ncnc3[nH]ncc23)C2CCCC2)c1 [Example 2p, 4-[N--(thiophen-2-ylmethyl)-cyclopentylamino]-1H--pyrazolo[3,4-d]pyrimidine]
inhibition at 10 µM: 37%

COc1cccc(CN(c2ncnc3[nH]ncc23)C2CCCC2)c1 [Example 2d, 4-[N--(3-methoxybenzyl)-cyclopentylamino]-1H--pyrazolo[3,4-d]pyrimidine]
inhibition at 10 µM: 36%

Clc1ccc(Cl)c(CN(c2ncnc3[nH]ncc23)C2CCCC2)c1 [Example 2j, 4-[N--(2,5-dichlorobenzyl)-cyclopentylamino] -1H--pyrazolo[3,4-d]pyrimidine]
inhibition at 10 µM: 29%

OCC(O)Cn1ncc2c(N(Cc3cccc(C(F)(F)F)c3)C3CCCC3)ncnc21 (stereo not shown) [Example 4b, 4-[N--(3-trifluoromethylbenzyl)-cyclopentylamino]-1-(2,3-dihydroxypropyl)-1H--pyrazolo[3,4-d]pyrimidine]
inhibition at 10 µM: 36%

Cc1ccc(Cl)cc1CN(c1ncnc2[nH]ncc12)C1CCCC1 [Example 2l, 4-[N--(5-chloro-2-methylbenzyl)-cyclopentylamino]-1H--pyrazolo[3,4-d]pyrimidine]
inhibition at 10 µM: 32%

c1coc(CN(c2ncnc3[nH]ncc23)C2CCCC2)c1 [Example 2o, 4-[N--(2-furylmethyl)-cyclopentylamino]-1H--pyrazolo[3,4-d]pyrimidine]
inhibition at 10 µM: 39%

CCOC(=O)c1cccc(CN(c2ncnc3[nH]ncc23)C2CCCC2)c1 [Example 2g, 4-[N--(3-ethoxycarbonylbenzyl)-cyclopentylamino]-1H--pyrazolo[3,4-d]pyrimidine]
inhibition at 10 µM: 40%

N#Cc1cccc(CN(c2ncnc3[nH]ncc23)C2CCCC2)c1 [Example 2i, 4-[N--(3-cyanobenzyl)-cyclopentylamino]-1H--pyrazolo[3,4-d]pyrimidine]
inhibition at 10 µM: 35%

Cc1ccc(C)c(CN(c2ncnc3[nH]ncc23)C2CCCC2)c1 [Example 2n, 4-[N--(2,5-dimethylbenzyl)-cyclopentylamino]-1H--pyrazolo[3,4-d]pyrimidine]
inhibition at 10 µM: 32%

Clc1ccc(CN(c2ncnc3[nH]ncc23)C2CCCC2)cc1Cl [Example 2k, 4-[N--(3,4-dichlorobenzyl)-cyclopentylamino]-1H--pyrazolo[3,4-d]pyrimidine]
inhibition at 10 µM: 32%
